This note sets out measurements from ChEMBL document CHEMBL1141597, “2-Alkyl-4-aryl-pyrimidine fused heterocycles as selective 5-HT2A antagonists” (Bioorg Med Chem Lett, 2008).

In general, Ki refers to the equilibrium dissociation constant of an inhibitor or competing ligand from its target. As a reminder, the pKb is the Kb on a negative log10 scale, so that one unit is a factor of ten.

The target of experiment [1] is T1, 5-hydroxytryptamine receptor 2C (Homo sapiens, UniProt P28335).
T1 sequence (P28335 whole entry): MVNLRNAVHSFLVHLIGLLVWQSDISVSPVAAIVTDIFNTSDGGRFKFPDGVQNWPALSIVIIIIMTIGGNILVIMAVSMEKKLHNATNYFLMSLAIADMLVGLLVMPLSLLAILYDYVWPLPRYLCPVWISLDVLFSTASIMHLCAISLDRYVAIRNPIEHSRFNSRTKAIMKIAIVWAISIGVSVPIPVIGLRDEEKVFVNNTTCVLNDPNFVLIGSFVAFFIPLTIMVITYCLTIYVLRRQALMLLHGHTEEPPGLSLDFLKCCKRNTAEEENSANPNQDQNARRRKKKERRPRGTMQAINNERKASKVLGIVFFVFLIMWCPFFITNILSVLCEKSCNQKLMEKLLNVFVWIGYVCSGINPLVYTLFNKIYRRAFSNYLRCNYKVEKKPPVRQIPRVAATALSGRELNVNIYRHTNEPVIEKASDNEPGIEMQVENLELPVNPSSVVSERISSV
As to the kind of experiment: Displacement of [3H]mesulergine from human recombinant 5HT2C receptor expressed in CHO cells. It counts as cell-based.

In experiment [2] the target is T2, 5-hydroxytryptamine receptor 2B (Homo sapiens, UniProt P41595). Nature of the experiment: Displacement of [3H]mesulergine from human recombinant 5HT2B receptor expressed in CHO cells. Type of experiment: cell-based.
In experiment [3] the target is T3, 5-hydroxytryptamine receptor 2A (Homo sapiens, UniProt P28223). Nature of the experiment: Displacement of [3H]ketanserin from human recombinant 5HT2A receptor expressed in mouse NIH3T3 cells. Type of experiment: cell-based. (In general: In a radioligand displacement assay an active substance lowers the binding of a labelled ligand.)
Experiment [4] has as its target T2, 5-hydroxytryptamine receptor 2B. Nature of the experiment: Antagonist activity at human recombinant 5HT2B receptor expressed in CHO cells assessed as increase in calcium levels. Type of experiment: functional, cell-based.
Experiment [5] has as its target T3, 5-hydroxytryptamine receptor 2A. The conditions noted are these: NIH3T3.
Description: Antagonist activity at human recombinant 5HT2A receptor expressed in mouse NIH3T3 cells assessed as increase in calcium levels
The target is the same in experiment [6]. As to the kind of experiment: Binding affinity at 5HT2A receptor.
The target of experiment [7] is T1, 5-hydroxytryptamine receptor 2C. As to the kind of experiment: Binding affinity at 5HT2C receptor.
Experiment [8] deals with T2, 5-hydroxytryptamine receptor 2B. Nature of the experiment: Binding affinity at 5HT2B receptor.

Active and inactive are the calls of the source. The rule behind the calls is not given here.

T3 sequence (P28223 whole entry): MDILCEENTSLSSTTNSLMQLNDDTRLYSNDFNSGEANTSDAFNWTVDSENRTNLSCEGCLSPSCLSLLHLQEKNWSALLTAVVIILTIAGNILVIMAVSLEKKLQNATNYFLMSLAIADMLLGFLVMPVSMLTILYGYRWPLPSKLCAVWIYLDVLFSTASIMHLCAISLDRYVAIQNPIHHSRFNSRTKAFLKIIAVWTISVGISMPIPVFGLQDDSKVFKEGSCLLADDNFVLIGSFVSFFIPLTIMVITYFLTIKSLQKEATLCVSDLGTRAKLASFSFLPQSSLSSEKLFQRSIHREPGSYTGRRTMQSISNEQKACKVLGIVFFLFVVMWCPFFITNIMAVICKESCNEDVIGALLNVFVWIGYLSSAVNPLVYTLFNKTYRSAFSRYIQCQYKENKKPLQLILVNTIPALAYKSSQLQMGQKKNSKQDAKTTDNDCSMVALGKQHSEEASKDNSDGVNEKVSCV
T2 sequence (P41595 whole entry): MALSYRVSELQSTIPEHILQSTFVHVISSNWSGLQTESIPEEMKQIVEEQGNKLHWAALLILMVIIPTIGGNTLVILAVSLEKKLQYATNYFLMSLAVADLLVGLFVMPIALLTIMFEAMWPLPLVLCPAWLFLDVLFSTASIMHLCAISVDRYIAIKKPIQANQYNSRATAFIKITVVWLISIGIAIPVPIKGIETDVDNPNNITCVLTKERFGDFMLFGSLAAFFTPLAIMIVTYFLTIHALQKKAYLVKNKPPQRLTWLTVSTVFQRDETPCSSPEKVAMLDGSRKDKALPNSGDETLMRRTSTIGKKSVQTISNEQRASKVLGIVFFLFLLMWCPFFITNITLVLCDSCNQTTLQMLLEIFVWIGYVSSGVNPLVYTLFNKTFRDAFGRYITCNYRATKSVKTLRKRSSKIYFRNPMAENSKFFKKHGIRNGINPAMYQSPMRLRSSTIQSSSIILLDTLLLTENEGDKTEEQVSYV

Consider `Cc1nc2c(c(-c3ccc(Cl)cc3)n1)CCNCC2`, for which the inhibition constant Ki was 5000 nM in experiment [1], 270 nM in experiment [2] and 1200 nM in experiment [3].
In the case of `Fc1ccc(-c2nc(-c3ccccc3)nc3c2CNCC3)cc1`, in experiment [3], the Ki was 50 nM.
As to `CN(C)CCO/N=C(/C=C/c1ccc(O)cc1)c1ccccc1F`, the outcome in experiment [4] was inactive.
For the compound `COc1ccc(-c2nc(C3CCCC3)nc3c2CCNCC3)cc1`, the Ki in experiment [1] was 120 nM; in experiment [2], 4.8 nM; in experiment [3], 11 nM.
Consider `Fc1ccc(Cc2nc3c(c(-c4ccc(F)cc4)n2)CCNCC3)cc1`, for which the result in experiment [4] was inactive. This compound had a pKb in experiment [5] of 8.2. Further, the Ki in experiment [3] came to 0.7 nM.
As to `CCN(CC)c1nc2c(c(-c3ccc(C)cc3)n1)CNCC2`, the Ki turned out to be 20 nM in experiment [6], 300 nM in experiment [7] and 70 nM in experiment [8].
With `Fc1ccc(-c2nc(C3CCCC3)nc3c2CCNCC3)cc1`, the Ki in experiment [3] was 13 nM.
`Fc1ccc(-c2nc(Cc3ccccc3)nc3c2CNCCC3)cc1`: the Ki in experiment [1] came to 5000 nM; in experiment [2] it was 10000 nM.
For `Cc1ccc(-c2nc(Cc3ccccc3)nc3c2CCNCC3)cc1`, the figures for the Ki in experiment [1] and in experiment [3] were 15 nM and 0.4 nM, respectively.
For `Fc1ccc(-c2nc(C3CC3)nc3c2CNCC3)cc1`, in that order: 5000 nM and 40 nM.
With `Fc1ccc(-c2nc(C3CCCC3)nc3c2CNCC3)cc1`, the Ki in experiment [1] turned out to be 110 nM; in experiment [2], 220 nM; in experiment [3] it was 2.2 nM. Besides, the outcome in experiment [4] was inactive. In experiment [5], the pKb was 8.1.
In the case of `Cc1nc2n(c(=O)c1CCN1CCC(c3noc4cc(F)ccc34)CC1)CCCC2`, the result in experiment [4] was inactive.
Take `Fc1ccc(-c2nc(Cc3ccccc3)nc3c2CCCNC3)cc1`: the results for the inhibitory constant (Ki) in experiment [1] and in experiment [3] were 150 nM and 8.8 nM, respectively.
Regarding `COc1cccc(C(O)C2CCN(CCc3ccc(F)cc3)CC2)c1OC` (single isomer, unassigned), the result in experiment [4] was inactive.
On to `Cc1ccc(-c2nc(C3CCCC3)nc3c2CCNCC3)cc1`, for which the Ki in experiment [1] was 23 nM.
For `Fc1ccc(Cc2nc3c(c(-c4ccc(F)cc4)n2)CNCC3)cc1`, the outcome in experiment [4] was inactive. Moreover, in experiment [5], the pKb stood at 7.1. In addition, in experiment [3], the Ki came to 13 nM.
For `Fc1ccc(-c2nc(Cc3ccccc3)nc3c2CCNC3)cc1`, the inhibition constant (Ki) is 310 nM in experiment [2] and 9 nM in experiment [3].
As for `Fc1ccc(-c2nc(C3CCC3)nc3c2CNCC3)cc1`, the Ki in experiment [1] worked out at 410 nM; in experiment [2] it was 210 nM; in experiment [3], 11 nM.
For `CC(C)c1nc2c(c(-c3ccc(F)cc3)n1)CCNCC2`, the inhibitory constant (Ki) in experiment [3] was 4 nM.
Consider `N#Cc1ccc(-c2nc(C3CCCC3)nc3c2CCNCC3)cc1`, for which the inhibition constant Ki in experiment [1] turned out to be 460 nM; in experiment [2] it was 20 nM; in experiment [3] it was 34 nM.
On to `Fc1ccc(-c2nc(Cc3ccccc3)nc3c2CCNCC3)cc1`, for which the Ki in experiment [3] was 0.6 nM.
Take `Fc1ccc(-c2nc(Cc3ccccc3)nc3c2CNCC3)cc1`: the Ki came to 400 nM in experiment [1], 2500 nM in experiment [2] and 20 nM in experiment [3].
Turning to `CC(C)(C)c1nc2c(c(-c3ccc(F)cc3)n1)CNCC2`, the Ki was determined as 100 nM in experiment [1] and 5 nM in experiment [3].
For the compound `FC(F)(F)c1ccc(-c2nc(Cc3ccccc3)nc3c2CCNCC3)cc1`, the Ki in experiment [3] was 0.8 nM.
For the compound `Cc1nc2sccn2c(=O)c1CCN1CCC(=C(c2ccc(F)cc2)c2ccc(F)cc2)CC1`, the result in experiment [4] was inactive.
